Experimental data: the OPERA property sets (Mansouri et al. 2018)

Conditions: not given

Structure (SMILES)	melting point [°C]	boiling point [°C]	log10 vapour pressure (mmHg)	log10 biodegradation half-life (days)	ready biodegradability	log10 Koa	log10 Henry constant (atm·m³/mol)	log10 Koc (L/kg)
O=C(Nc1ccccc1)c1ccccc1O	136							
NC(=O)C(Br)(Br)Br	122							
CC#CC(=O)OCC		163						
Brc1cccc2c1Oc1ccccc1O2	104		-4.58					
NCCNCCNCCNCCN	-30	342						
Cc1ccc(C)c(C)c1C	-6.2	205	-0.443	0.602				
CC(C)CCc1ccccc1		195						
COC(=O)C(C)(C)O		137						
CCCC(Cn1cncn1)c1ccc(Cl)cc1Cl (configuration not stated)	58.5		-5.56					
CCOP(=S)(OCC)Oc1cnc2ccccc2n1	31.5		-5.58					
C=CC=CC(=O)O	79							
COc1ccccc1C=C(C(=O)O)c1ccccc1	158							
Nc1ccc(CCc2ccc(N)cc2)cc1	137							
OCCc1c[nH]c2ccccc12	59							
OCCc1ccc(Cl)cc1		259						
Cc1cc(O)c(C)c(C)c1C	85.3	266						
Cc1ccc(Cl)cc1Cl	-13.5	201	-0.339		not readily biodegradable			
CCCCOC(=O)c1ccccc1C(=O)OC1CCCCC1			-5.32					
FC(F)(F)c1cccc(Cl)c1	-56	138			not readily biodegradable			
CCCCCCCCCC(=O)OCC	-20	242						
COc1ccc(O)cc1	57	243			readily biodegradable			

Structure (SMILES)	melting point [°C]	boiling point [°C]	log10 vapour pressure (mmHg)	log10 biodegradation half-life (days)	ready biodegradability	log10 Koa	log10 Henry constant (atm·m³/mol)	log10 Koc (L/kg)
FC(F)(Cl)C(F)(F)Cl	-94	3.8	3.3					
Cc1cnc(C)c(C)n1		172						
NC(=O)c1cnccn1	192							
O=S1(=O)CCN(CN2CCS(=O)(=O)NC2)CN1	156							
Clc1cc2oc3ccc(Cl)c(Cl)c3c2cc1Cl	210		-7.74			9.78		
CC1=C(C(=O)O)N2C(=O)[C@@H](NC(=O)[C@H](N)C3=CCC=CC3)[C@H]2SC1	140							
O=C(CO)[C@@H](O)[C@H](O)[C@@H](O)CO	165							
CCc1cccc(C)n1		160						
FC(Cl)(Cl)C(Cl)Cl	-82.6	116						
CC(C)CCBr	-112	120	1.54				-1.46	
CC[N+](CC)(CC(=O)Nc1c(C)cccc1C)Cc1ccccc1.O=C([O-])c1ccccc1	168							
Cc1cc(Cl)ccc1N=CN(C)C	35		-3.03					2.91
O=C(O)c1ccccc1S(=O)(=O)O	141				not readily biodegradable			
CCC(CO)(CO)[N+](=O)[O-]	57.5							
COc1cc(NS(=O)(=O)c2ccc(N)cc2)nc(OC)n1	204							
CC(Cl)CCCCl (configuration not stated)		162						
CC1=C(O)C(=O)C(C(C)C)CC1 (configuration not stated)	83							
Cn1c(=O)c2c(ncn2C)n(C)c1=O	238							
CC(C)(N=C(O)C(Br)C(C)(C)C)c1ccccc1 (configuration not stated)	180							
CCCC(=O)[O-].[Na+]	251							
CC(C)(C)Cc1ccccc1		186						

Structure (SMILES)	melting point [°C]	boiling point [°C]	log10 vapour pressure (mmHg)	log10 biodegradation half-life (days)	ready biodegradability	log10 Koa	log10 Henry constant (atm·m³/mol)	log10 Koc (L/kg)
O=C1OCCN1/N=C/c1ccc([N+](=O)[O-])o1	255							
CC(C)(c1ccccc1)c1ccc(O)cc1	75	335	-4.23		not readily biodegradable			
O=C1C=CC(=O)N1c1ccccc1	90.5							
O=C(O)CCCCCCCCCCO	65.5							
CCCCCCCCCCCCCCCCCCC1CC(=O)OC1=O (configuration not stated)					not readily biodegradable			
BrC(Br)c1ccccc1OCC1CO1 (configuration not stated)					not readily biodegradable			
NS(=O)(=O)c1ccc(S(=O)(=O)CCCO)c([N+](=O)[O-])c1	169							
C=COCCCCCCCCCCCCCCCC	16							
COC(=O)C1CCCCC1		183						
CCCCCCCCCCCCCCCc1cccc(O)c1O	59.5							
CC[C@@H](CO)NCCN[C@@H](CC)CO	89							
N=C(N)NC(=O)Cc1c(Cl)cccc1Cl	226							
CCN(CC)C(=O)C(C)Oc1cccc2ccccc12 (configuration not stated)	75		-6.76					2.76
Nc1c(Cl)c(F)nc(OCC(=O)O)c1Cl	232		-10.5					
CC(C)CC(=O)OCc1ccccc1		245						
Cc1cccc2ccc3ccccc3c12	53.5							
CC(=O)c1cc(C)ccc1C	-18.1	232						
CCCCCCN(C)C(=O)COC(=O)c1ccccc1	100							
COCCCNc1nc(NC(C)C)nc(SC)n1			-6.55					
Cc1ccccc1N1C(=O)c2cc(S(N)(=O)=O)c(Cl)cc2NC1C (configuration not stated)	256							

Same assay, conditions: fish

Structure (SMILES)	log10 BCF	log10 biotransformation half-life (days)
CC1=CC(=O)CC(C)(C)C1	0.3	-1.29
Oc1cc(Cl)cc(Cl)c1	1.91	-0.91
Cc1ccc2c(c1)CCCC2(C)C		0.83
Clc1ccc(Oc2cc(Cl)c(Cl)cc2Cl)cc1		1.93
Nc1ccc(Cc2ccc(N)c(Cl)c2)cc1Cl	2.24	-0.15
CC(=CC(C)(C)C)CC(C)(C)C		0.7
Clc1cccc(-c2ccccc2)c1Cl	3.98	2.15
Cc1ccc(C)c(C)c1C		1.17
CCCC(Cn1cncn1)c1ccc(Cl)cc1Cl (configuration not stated)		1.19
FC(F)(F)c1cccc(Cl)c1	2.35	0.64
Brc1cc(Br)c(Br)c(Oc2c(Br)c(Br)c(Br)c(Br)c2Br)c1	5.68	
